This passage reports remaining binding results from publication PMC10174618, “Monoterpenoid aryl hydrocarbon receptor allosteric antagonists protect against ultraviolet skin damage in female mice” (Nature Communications, 2023).

Holding throughout (assay): biochemical
Set-up in all cases: KINOMEscan scanMAX active site-directed competition binding assay, percent of control, 468 kinases
Holding throughout (details): competition binding, percent of control

For assay [1], the target named is ITK (Homo sapiens, UniProt Q08881). The essentials: (§1)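 Single-concentration screen (100 μM S-carvone) in a competition binding panel of 468 human kinases (KINOMEscan scanMAX); results given as percent of control, hit cutoff 35%.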
ITK, sequence (Q08881 whole entry): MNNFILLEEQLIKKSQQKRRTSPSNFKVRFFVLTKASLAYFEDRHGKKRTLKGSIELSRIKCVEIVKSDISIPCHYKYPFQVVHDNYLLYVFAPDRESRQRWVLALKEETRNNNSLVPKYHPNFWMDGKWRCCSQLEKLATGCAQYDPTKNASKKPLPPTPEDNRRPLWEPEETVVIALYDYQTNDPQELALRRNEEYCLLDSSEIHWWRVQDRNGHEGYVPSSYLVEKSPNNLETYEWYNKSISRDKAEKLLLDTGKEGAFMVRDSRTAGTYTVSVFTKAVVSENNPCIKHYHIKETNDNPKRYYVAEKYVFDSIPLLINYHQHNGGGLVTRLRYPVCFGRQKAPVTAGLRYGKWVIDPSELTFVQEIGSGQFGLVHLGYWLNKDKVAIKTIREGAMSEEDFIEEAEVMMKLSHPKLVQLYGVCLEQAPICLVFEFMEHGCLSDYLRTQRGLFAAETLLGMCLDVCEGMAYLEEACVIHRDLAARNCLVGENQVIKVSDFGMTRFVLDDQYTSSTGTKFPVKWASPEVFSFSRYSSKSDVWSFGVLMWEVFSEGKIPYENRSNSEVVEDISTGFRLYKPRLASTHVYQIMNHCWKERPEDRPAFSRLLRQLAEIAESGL
The target in assay [2] is ABL2 (Homo sapiens, UniProt P42684). The essentials: as §1
The target of assay [3] is AXL (Homo sapiens, UniProt P30530). In outline: as §1
Assay [4] has as its target AURKC (Homo sapiens, UniProt Q9UQB9). The essentials: as §1
Assay [5] deals with MAP3K3 (Homo sapiens, UniProt Q99759). The essentials:
as §1

Assay [6] concerns the target EGFR(L858R) (Homo sapiens, UniProt P00533, L858R). The essentials:
as §1

Assay [7] addresses WNK3 (Homo sapiens, UniProt Q9BYP7). The essentials: as §1
In assay [8] the target is RIOK3 (Homo sapiens, UniProt O14730). In outline: as §1
The target in assay [9] is NEK2 (Homo sapiens, UniProt P51955). In outline: as §1
NEK2, sequence (P51955 whole entry): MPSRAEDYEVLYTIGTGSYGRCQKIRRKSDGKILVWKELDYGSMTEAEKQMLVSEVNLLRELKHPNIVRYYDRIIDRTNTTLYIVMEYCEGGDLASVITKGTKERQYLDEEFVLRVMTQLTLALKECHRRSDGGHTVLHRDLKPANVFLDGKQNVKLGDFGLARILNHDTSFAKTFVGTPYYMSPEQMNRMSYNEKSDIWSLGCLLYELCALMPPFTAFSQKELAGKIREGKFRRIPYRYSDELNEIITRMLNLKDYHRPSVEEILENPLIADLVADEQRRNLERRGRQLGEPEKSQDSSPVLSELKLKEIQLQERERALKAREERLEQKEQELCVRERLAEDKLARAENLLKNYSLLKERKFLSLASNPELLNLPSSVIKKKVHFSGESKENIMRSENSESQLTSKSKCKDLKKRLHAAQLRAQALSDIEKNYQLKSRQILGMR
In assay [10] the target is WEE1 (Homo sapiens, UniProt P30291). The essentials:
as §1

For assay [11], the target named is ERBB2 (Homo sapiens, UniProt P04626). In outline: as §1
ERBB2, sequence (P04626 whole entry): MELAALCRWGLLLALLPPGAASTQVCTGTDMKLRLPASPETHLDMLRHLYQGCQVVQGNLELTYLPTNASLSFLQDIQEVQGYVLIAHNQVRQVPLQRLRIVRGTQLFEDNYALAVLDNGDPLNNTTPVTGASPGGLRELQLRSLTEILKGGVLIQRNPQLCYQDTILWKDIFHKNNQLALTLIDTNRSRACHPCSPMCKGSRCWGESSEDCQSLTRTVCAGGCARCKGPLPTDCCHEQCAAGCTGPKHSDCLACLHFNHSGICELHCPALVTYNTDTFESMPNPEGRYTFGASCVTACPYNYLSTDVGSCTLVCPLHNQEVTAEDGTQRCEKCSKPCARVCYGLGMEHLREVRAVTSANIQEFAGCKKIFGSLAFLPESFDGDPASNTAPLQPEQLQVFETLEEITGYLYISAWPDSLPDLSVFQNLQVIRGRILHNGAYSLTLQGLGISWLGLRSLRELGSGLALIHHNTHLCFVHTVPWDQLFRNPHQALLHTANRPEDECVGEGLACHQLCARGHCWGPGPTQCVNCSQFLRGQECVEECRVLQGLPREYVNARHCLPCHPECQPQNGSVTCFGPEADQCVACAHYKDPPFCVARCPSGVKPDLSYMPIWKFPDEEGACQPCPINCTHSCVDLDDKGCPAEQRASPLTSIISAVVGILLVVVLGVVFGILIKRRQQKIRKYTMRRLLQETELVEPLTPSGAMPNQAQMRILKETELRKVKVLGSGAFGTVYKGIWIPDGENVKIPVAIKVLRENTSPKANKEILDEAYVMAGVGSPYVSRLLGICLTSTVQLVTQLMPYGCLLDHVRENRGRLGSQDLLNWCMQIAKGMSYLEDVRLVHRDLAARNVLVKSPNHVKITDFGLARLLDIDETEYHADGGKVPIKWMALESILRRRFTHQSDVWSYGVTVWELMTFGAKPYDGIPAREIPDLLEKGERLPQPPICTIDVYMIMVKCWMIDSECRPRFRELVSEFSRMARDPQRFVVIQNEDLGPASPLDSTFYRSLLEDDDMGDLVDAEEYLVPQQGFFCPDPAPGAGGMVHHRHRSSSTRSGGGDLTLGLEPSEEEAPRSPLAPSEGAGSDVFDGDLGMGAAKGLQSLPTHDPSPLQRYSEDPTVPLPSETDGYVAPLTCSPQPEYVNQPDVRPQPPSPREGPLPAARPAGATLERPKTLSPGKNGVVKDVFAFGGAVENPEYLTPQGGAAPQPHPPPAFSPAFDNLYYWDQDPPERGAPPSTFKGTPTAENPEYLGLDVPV
Assay [12] deals with FER (Homo sapiens, UniProt P16591). The essentials:
as §1

In assay [13] the target is BMPR1B (Homo sapiens, UniProt O00238). In outline: as §1
Assay [14] has as its target NEK11 (Homo sapiens, UniProt Q8NG66). The essentials: as §1
Assay [15] concerns the target T1, p38-alpha (Homo sapiens, UniProt Q16539).
T1 construct: gene MAPK14
The essentials:
as §1

Assay [16] deals with SRPK1 (Homo sapiens, UniProt Q96SB4). In outline: as §1
The target in assay [17] is PIK3CA(E545A) (Homo sapiens, UniProt P42336, E545A). The essentials:
as §1

The target of assay [18] is CSNK2A1 (Homo sapiens, UniProt P68400). In outline:
as §1

The target of assay [19] is SGK3 (Homo sapiens, UniProt Q96BR1). In outline:
as §1

Assay [20] addresses TTK (Homo sapiens, UniProt P33981). The essentials:
as §1

Assay [21] has as its target KIT(A829P) (Homo sapiens, UniProt P10721, A829P). In outline:
as §1

Assay [22] deals with T2, PYK2 (Homo sapiens, UniProt Q14289).
T2 construct: gene PTK2B
The essentials: as §1

Molecules are shown by their SMILES.

T1 sequence (Q16539 whole entry): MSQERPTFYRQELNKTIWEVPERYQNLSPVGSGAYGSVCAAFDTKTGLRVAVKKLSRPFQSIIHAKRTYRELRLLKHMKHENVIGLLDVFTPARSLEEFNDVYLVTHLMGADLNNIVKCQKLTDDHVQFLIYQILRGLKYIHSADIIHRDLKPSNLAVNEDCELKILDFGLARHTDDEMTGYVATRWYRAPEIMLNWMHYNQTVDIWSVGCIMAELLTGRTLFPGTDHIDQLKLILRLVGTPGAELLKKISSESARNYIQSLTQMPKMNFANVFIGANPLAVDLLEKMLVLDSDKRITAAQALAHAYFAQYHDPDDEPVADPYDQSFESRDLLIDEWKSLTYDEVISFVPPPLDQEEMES
KIT(A829P), sequence (P10721 whole entry A829P): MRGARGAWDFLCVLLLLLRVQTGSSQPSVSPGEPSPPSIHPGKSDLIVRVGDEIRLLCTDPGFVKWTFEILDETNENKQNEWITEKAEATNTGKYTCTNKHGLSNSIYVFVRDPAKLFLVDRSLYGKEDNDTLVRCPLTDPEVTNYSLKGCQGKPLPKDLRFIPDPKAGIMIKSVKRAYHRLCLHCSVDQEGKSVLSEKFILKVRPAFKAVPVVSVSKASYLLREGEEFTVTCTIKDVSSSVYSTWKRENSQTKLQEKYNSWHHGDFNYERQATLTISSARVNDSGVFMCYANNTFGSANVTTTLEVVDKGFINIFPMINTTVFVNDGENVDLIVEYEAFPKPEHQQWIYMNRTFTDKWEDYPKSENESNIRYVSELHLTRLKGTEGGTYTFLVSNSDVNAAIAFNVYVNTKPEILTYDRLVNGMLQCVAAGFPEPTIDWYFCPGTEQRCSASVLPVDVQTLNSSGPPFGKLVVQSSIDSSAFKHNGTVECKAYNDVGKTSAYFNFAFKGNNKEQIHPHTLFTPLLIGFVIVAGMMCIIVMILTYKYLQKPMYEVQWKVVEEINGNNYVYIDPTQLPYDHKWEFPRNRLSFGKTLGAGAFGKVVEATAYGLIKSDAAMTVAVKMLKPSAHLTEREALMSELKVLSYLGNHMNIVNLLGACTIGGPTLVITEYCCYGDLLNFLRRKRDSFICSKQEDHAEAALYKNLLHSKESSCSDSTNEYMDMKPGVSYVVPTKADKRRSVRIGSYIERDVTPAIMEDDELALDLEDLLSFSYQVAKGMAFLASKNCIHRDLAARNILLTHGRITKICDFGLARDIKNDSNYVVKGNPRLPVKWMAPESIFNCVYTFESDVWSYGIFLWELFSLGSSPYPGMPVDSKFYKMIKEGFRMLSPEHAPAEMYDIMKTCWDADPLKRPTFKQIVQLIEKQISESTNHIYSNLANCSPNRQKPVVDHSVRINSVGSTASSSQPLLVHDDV
TTK, sequence (P33981 whole entry): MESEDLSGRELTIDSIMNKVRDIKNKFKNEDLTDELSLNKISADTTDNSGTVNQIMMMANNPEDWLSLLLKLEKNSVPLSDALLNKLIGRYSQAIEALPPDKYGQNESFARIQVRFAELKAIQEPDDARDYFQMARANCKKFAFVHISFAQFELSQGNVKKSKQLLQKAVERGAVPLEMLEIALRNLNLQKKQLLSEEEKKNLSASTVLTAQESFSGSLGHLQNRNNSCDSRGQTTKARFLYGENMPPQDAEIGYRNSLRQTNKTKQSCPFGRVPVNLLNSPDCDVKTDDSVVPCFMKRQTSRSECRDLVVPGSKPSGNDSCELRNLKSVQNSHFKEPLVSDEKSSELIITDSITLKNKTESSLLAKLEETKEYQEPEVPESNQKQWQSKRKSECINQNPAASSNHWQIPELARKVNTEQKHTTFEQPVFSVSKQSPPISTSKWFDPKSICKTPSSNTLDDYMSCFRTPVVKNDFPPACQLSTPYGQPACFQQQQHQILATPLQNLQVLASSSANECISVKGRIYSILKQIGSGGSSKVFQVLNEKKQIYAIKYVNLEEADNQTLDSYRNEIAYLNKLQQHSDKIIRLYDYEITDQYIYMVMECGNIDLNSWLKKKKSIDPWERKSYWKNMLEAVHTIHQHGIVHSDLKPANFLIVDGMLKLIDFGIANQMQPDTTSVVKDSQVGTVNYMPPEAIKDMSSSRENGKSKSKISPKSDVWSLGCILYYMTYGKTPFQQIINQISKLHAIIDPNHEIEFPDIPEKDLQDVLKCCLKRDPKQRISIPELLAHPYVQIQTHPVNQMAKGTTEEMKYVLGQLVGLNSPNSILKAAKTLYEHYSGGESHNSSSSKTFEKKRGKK
AURKC, sequence (Q9UQB9 whole entry): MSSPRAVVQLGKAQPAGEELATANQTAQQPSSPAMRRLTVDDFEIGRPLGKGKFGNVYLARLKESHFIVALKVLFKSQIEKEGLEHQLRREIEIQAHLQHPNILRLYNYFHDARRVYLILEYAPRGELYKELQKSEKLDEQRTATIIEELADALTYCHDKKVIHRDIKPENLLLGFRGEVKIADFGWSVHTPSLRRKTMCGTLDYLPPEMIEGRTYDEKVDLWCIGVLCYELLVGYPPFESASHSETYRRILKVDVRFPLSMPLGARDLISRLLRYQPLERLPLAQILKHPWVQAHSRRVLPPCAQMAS

For the compound `C=C(C)[C@H]1CC=C(C)C(=O)C1` [S-carvone], the remaining binding at 100 µM in assay [1] was 87%; in assay [2] it was 85%; in assay [3], 82%; in [4] it was 100%; in assay [5] it was 54%; in assay [6], 85%. Moreover, the remaining binding at 100 µM in assay [7] came to 100%; in assay [8], 89%; in assay [9] it was 100%; in [10], 81%; in assay [11], 83%; in assay [12], 75%. In addition, the remaining binding at 100 µM in [13] stood at 74%; in assay [14] it was 52%; in [15], 100%; in assay [16], 77%; in [17], 70%; in assay [18] it was 71%. Besides, the remaining binding at 100 µM is 81% in assay [19], 80% in assay [20], 84% in assay [21] and 80% in assay [22].
